Data: ChEMBL document CHEMBL3727348, “3-(aryl or heteroaryl) methyleneindolin-2-one derivatives as inhibitors of cancer stem cell pathway kinases for the treatment of cancer” (2014)

What was measured:
[1] = target: Serine/threonine-protein kinase RIO2 (Homo sapiens) (UniProt Q9BVS4); assay: Inhibition of N-terminal GST-fused full length human recombinant RIOK2 expressed in baculovirus Sf21 cells assessed as reduction in kinase auto-phosphorylation at 1 uM in presence of ATP incubated for 1 hr by ELISA method
[2] = target: Serine/threonine-protein kinase RIO2 (Homo sapiens) (UniProt Q9BVS4); assay: Inhibition of N-terminal GST-fused full length human recombinant RIOK2 expressed in baculovirus Sf21 cells assessed as reduction in kinase auto-phosphorylation at 10 uM in presence of ATP incubated for 1 hr by ELISA method
FaDu [3] = assay: Cytotoxic activity against human FADU bulk cells incubated for 72 hrs by Cell-titer-Glo luminescence assay; assay type: functional, cell-based
A549 [4] = assay: Cytotoxic activity against human A549 bulk cells incubated for 72 hrs by Cell-titer-Glo luminescence assay; assay type: functional, cell-based; settings: A549, 72 h
ACHN [5] = assay: Cytotoxic activity against human ACHN bulk cells incubated for 72 hrs by Cell-titer-Glo luminescence assay; assay type: functional, cell-based
FaDu [6] = assay: Cytotoxic activity against human FADU cancer stem cells incubated for 72 hrs by Cell-titer-Glo luminescence assay; assay type: functional, cell-based
A549 [7] = assay: Cytotoxic activity against human A549 cancer stem cells incubated for 72 hrs by Cell-titer-Glo luminescence assay; assay type: functional, cell-based; settings: A549, 72 h
ACHN [8] = assay: Cytotoxic activity against human ACHN cancer stem cells incubated for 72 hrs by Cell-titer-Glo luminescence assay; assay type: functional, cell-based
[9] = target: AMP-activated protein kinase, AMPK (Homo sapiens) (UniProt P54646+O43741+P54619+Q9UGJ0+Q9Y478+Q13131+Q9UGI9); assay: Inhibition of AMPK in human HeLa cells assessed as kinase phosphorylation level at 5 uM incubated for 6 hrs by SDS-PAGE based chemiluminescence assay; assay type: cell-based; set-up: scale not given: the % may be the effect or the level left
[10] = target: T1, Ribosomal protein S6 kinase (Homo sapiens) (UniProt P51812+Q9UBS0+O75676+Q15349+O75582+P23443+Q9UK32+Q15418); assay: Inhibition of RPS6 kinase in human HeLa cells assessed as p-RPS6 Ser235/236 phosphorylation level at 5 uM incubated for 6 hrs by SDS-PAGE based chemiluminescence assay; assay type: cell-based; set-up: scale not given: the % may be the effect or the level left
[11] = target: T1, Ribosomal protein S6 kinase (Homo sapiens); assay: Inhibition of RPS6 kinase in human HeLa cells assessed as p-RPS6 Ser240/244 phosphorylation level at 5 uM incubated for 6 hrs by SDS-PAGE based chemiluminescence assay; assay type: cell-based; set-up: scale not given: the % may be the effect or the level left

Sequence of Serine/threonine-protein kinase RIO2 (Homo sapiens) (Q9BVS4 whole entry, looked up, the tested form may be a part): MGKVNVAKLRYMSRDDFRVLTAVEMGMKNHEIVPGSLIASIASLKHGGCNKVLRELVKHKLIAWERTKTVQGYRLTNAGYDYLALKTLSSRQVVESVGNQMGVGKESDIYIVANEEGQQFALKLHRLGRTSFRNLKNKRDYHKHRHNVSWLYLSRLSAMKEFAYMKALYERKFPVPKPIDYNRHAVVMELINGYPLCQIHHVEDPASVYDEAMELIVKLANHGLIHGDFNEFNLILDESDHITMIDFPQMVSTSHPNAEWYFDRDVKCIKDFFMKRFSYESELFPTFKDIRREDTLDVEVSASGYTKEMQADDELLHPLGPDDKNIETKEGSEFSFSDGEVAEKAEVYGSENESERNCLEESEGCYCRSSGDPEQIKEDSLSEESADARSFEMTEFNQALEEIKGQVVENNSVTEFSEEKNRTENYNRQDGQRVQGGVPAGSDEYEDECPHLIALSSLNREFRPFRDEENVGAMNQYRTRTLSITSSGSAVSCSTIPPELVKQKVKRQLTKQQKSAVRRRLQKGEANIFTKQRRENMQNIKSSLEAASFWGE

| Structure (SMILES) | inhibition [1] [%] | inhibition [2] [%] | IC50 (FaDu [3]) [µM] | IC50 (A549 [4]) [µM] | IC50 (ACHN [5]) [µM] | IC50 (FaDu [6]) [µM] | IC50 (A549 [7]) [µM] | IC50 (ACHN [8]) [µM] | Activity [9] [%] | Activity [10] [%] | Activity [11] [%] |
| --- | --- | --- | --- | --- | --- | --- | --- | --- | --- | --- | --- |
| CCN(CC)CCNC(=O)c1c(C)[nH]c(/C=C2\C(=O)Nc3ccc(-c4ccnn4-c4cccc(OC)c4)cc32)c1C | 51 | 98 | – | – | – | – | – | – | – | – | – |
| CCN(CC)CCNC(=O)c1c(C)[nH]c(/C=C2\C(=O)Nc3ccc(-c4cnn(-c5ccccn5)c4)cc32)c1C | 36 | 86 | 0.51 | 1.72 | 1.24 | 0.05 | 2.53 | 0.13 | – | – | – |
| Cc1[nH]c(/C=C2\C(=O)Nc3ccc(-c4cnn(-c5ccccc5)c4)cc32)c(C)c1C(=O)NC1CCNCC1 | 17 | 140 | – | – | – | – | – | – | – | – | – |
| CCN(CC)CCNC(=O)c1c(C)[nH]c(/C=C2\C(=O)Nc3ccc(-c4cnn(-c5ccccc5)c4)cc32)c1C | 45 | 94 | 6.25 | 5.35 | 2.28 | 0.6 | 4.83 | – | – | – | – |
| Cc1[nH]c(/C=C2\C(=O)Nc3ccc(-c4cnn(-c5ccccc5)c4)cc32)c(C)c1C(=O)NCCc1ncc[nH]1 | -2 | 25 | – | – | – | – | – | – | – | – | – |
| CCN(CC)CCNC(=O)c1c(C)[nH]c(/C=C2\C(=O)Nc3ccc(-c4cnn(-c5cscn5)c4)cc32)c1C | 41 | 99 | – | – | – | – | – | – | – | – | – |
| CCN(CC)CCNC(=O)c1c(C)[nH]c(/C=C2\C(=O)Nc3ccc(-c4cnn(-c5ccc(S(N)(=O)=O)cc5)c4)cc32)c1C | 26 | 71 | – | – | – | – | – | – | – | – | – |
| CCN(CC)CCNC(=O)c1c(C)[nH]c(/C=C2\C(=O)Nc3ccc(-c4ccnn4-c4ccncc4)cc32)c1C | -6 | 44 | – | – | – | – | – | – | – | – | – |
| CCN(CC)CCNC(=O)c1c(C)[nH]c(/C=C2\C(=O)Nc3ccc(-c4ccnn4-c4ccc(OC)cc4)cc32)c1C | 34 | 106 | – | – | – | – | – | – | – | – | – |
| Cc1[nH]c(/C=C2\C(=O)Nc3ccc(-c4cnn(-c5ccccc5)c4)cc32)c(C)c1C(=O)N[C@H]1[C@@H]2CNC[C@@H]21 | 22 | 134 | – | – | – | – | – | – | – | – | – |
| Cc1[nH]c(/C=C2\C(=O)Nc3ccc(-c4cnn(-c5ccccc5)c4)cc32)c(C)c1C(=O)N[C@@H]1CCCNC1 | 22 | 130 | – | – | – | – | – | – | – | – | – |
| CCN(CC)CCNC(=O)c1c(C)[nH]c(/C=C2\C(=O)Nc3ccc(-c4ccnn4-c4ccc(F)cc4)cc32)c1C | 39 | 104 | – | – | – | – | – | – | – | – | – |
| CCOCCCNC(=O)c1c(C)[nH]c(/C=C2\C(=O)Nc3ccc(-c4cnn(-c5ccccc5)c4)cc32)c1C | -7 | 43 | – | – | – | – | – | – | – | – | – |
| CCN(CC)CCNC(=O)c1c(C)[nH]c(/C=C2\C(=O)Nc3ccc(-c4cnn(-c5ccccc5)c4C)cc32)c1C | 55 | 76 | 2.84 | 29.2 | 3.54 | 1.31 | 4.9 | – | – | – | – |
| CCN(CC)CCNC(=O)c1c(C)[nH]c(/C=C2\C(=O)Nc3ccc(-c4ccnn4-c4ccccn4)cc32)c1C | 14 | 93 | – | – | – | – | – | – | – | – | – |
| CCN(CC)CCNC(=O)c1c(C)[nH]c(/C=C2\C(=O)Nc3ccc(-c4ccnn4-c4ccc(C(F)(F)F)cc4)cc32)c1C | 9 | 68 | – | – | – | – | – | – | – | – | – |
| CCN(CC)CCNC(=O)c1c(C)[nH]c(/C=C2\C(=O)Nc3ccc(-c4ccnn4-c4ccccc4F)cc32)c1C | 56 | 116 | – | – | – | – | – | – | – | – | – |
| CCN(CC)CCNC(=O)c1c(C)[nH]c(/C=C2\C(=O)Nc3ccc(-c4ncc(-c5ccccc5)o4)cc32)c1C | 32 | 56 | 7.35 | – | – | 27.6 | 0.35 | – | – | – | – |
| Cc1[nH]c(/C=C2\C(=O)Nc3ccc(-c4cnn(-c5ccccc5)c4)cc32)c(C)c1C(=O)N[C@H]1CCCNC1 | 1.4 | 122 | – | – | – | – | – | – | – | – | – |
| CCN(CC)CCNC(=O)c1c(C)[nH]c(/C=C2\C(=O)Nc3ccc(-c4cnn(-c5cccnc5)c4)cc32)c1C | 42 | 82 | – | – | – | – | – | – | – | – | – |
| Cc1[nH]c(/C=C2\C(=O)Nc3ccc(-c4cnn(-c5ccccc5)c4)cc32)c(C)c1C(=O)NC[C@@H]1CCCN1 | 13 | 94 | – | – | – | – | – | – | – | – | – |

| Structure (SMILES) | inhibition [1] [%] | inhibition [2] [%] | IC50 (FaDu [3]) [µM] | IC50 (A549 [4]) [µM] | IC50 (ACHN [5]) [µM] | IC50 (FaDu [6]) [µM] | IC50 (A549 [7]) [µM] | IC50 (ACHN [8]) [µM] | Activity [9] [%] | Activity [10] [%] | Activity [11] [%] |
| --- | --- | --- | --- | --- | --- | --- | --- | --- | --- | --- | --- |
| CCN(CC)CCN(C)C(=O)c1c(C)[nH]c(/C=C2\C(=O)Nc3ccc(-c4cnn(-c5ccccc5)c4)cc32)c1C | 3 | 113 | – | – | – | – | – | – | – | – | – |
| CCN(CC)CCNC(=O)c1c(C)[nH]c(/C=C2\C(=O)Nc3ccc(-c4cnn(C5CCOCC5)c4)cc32)c1C | 32 | 68 | 4.22 | 16 | 10.4 | 2.57 | – | – | – | – | – |
| Cc1[nH]c(/C=C2\C(=O)Nc3ccc(-c4cnn(-c5ccccc5)c4)cc32)c(C)c1C(=O)NC[C@H]1CCCN1 | 9 | 126 | – | – | – | – | – | – | – | – | – |
| Cc1[nH]c(/C=C2\C(=O)Nc3ccc(-c4csc(-c5ccccc5)n4)nc32)c(C)c1C(=O)NCCN1CCCC1 | – | – | 1.73 | 1.43 | 1.52 | 0.17 | 2.47 | 0.4 | 41 | 13 | 51 |
| Cc1cc(C)c(/C=C2\C(=O)Nc3ccc(-c4ccc5cn[nH]c(=O)c5c4)cc32)[nH]1 | – | – | 2.55 | 1.4 | 1.12 | 2.96 | 3 | 0.26 | 39 | 1 | 24 |
| CCN(CC)CCNC(=O)c1c(C)[nH]c(/C=C2\C(=O)Nc3ccc(-c4ccnn4-c4ccccc4)cc32)c1C | 55 | 100 | 3.01 | 2.94 | 6.57 | 3.46 | 5.54 | 1.17 | – | – | – |
| CCN(CC)CCNC(=O)c1c(C)[nH]c(/C=C2\C(=O)Nc3ccc(-c4cnn(-c5ncccn5)c4)cc32)c1C | 42 | 112 | – | – | – | – | – | – | – | – | – |
| CCN(CC)CCNC(=O)c1c(C)[nH]c(/C=C2\C(=O)Nc3ccc(-c4ccnn4-c4ccc(Cl)c(Cl)c4)cc32)c1C | 18 | 87 | – | – | – | – | – | – | – | – | – |
| Cc1[nH]c(/C=C2\C(=O)Nc3c2cccc3-c2csc(-c3ccccc3)n2)c(C)c1C(=O)N1CCN(C)CC1 | – | – | 5.41 | 5.41 | 15.2 | 2.99 | 4.19 | 0.5 | 122 | 2 | 32 |
| Cc1[nH]c(/C=C2\C(=O)Nc3ccc(-c4cnn(-c5ccccc5)c4)cc32)c(C)c1C(=O)NCC1(N)CCCC1 | 7 | 65 | – | – | – | – | – | – | – | – | – |
| CCN(CC)CCNC(=O)c1c(C)[nH]c(/C=C2\C(=O)Nc3ccc(-c4cnn(-c5cnccn5)c4)cc32)c1C | 47 | 95 | – | – | – | – | – | – | – | – | – |
| CCN(CC)CCCNC(=O)c1c(C)[nH]c(/C=C2\C(=O)Nc3ccc(-c4cnn(-c5ccccc5)c4)cc32)c1C | 20 | 96 | – | – | – | – | – | – | – | – | – |
| CCN(CC)CCNC(=O)c1c(C)[nH]c(/C=C2\C(=O)Nc3ccc(-c4cnn(-c5ccncn5)c4)cc32)c1C | 40 | 109 | – | – | – | – | – | – | – | – | – |
| Cc1[nH]c(/C=C2\C(=O)Nc3ccc(-c4cnn(-c5ccccc5)c4)cc32)c(C)c1C(=O)NC1(CN2CCCCC2)CC1 | 6 | 107 | – | – | – | – | – | – | – | – | – |
| Cc1cc(C)c(/C=C2\C(=O)Nc3cccc(-c4ccncc4)c32)[nH]1 | – | – | 19.6 | 13.1 | 19.8 | 12.2 | 30.3 | 16.2 | 75 | 50 | 47 |
| Cc1[nH]c(/C=C2\C(=O)Nc3ccc(-c4cnn(-c5ccccn5)c4)cc32)c(C)c1C(=O)NCCN1CCCC1 | 53 | 91 | 2.53 | 2.53 | 1.64 | 1.65 | 11.7 | 0.22 | 52 | 82 | 92 |
| CCN(CC)CCNC(=O)c1c(C)[nH]c(/C=C2\C(=O)Nc3cccc(-c4ccc(-c5ccccc5)cc4)c32)c1C | – | – | 1.11 | 5.09 | 1.6 | 0.28 | 4.32 | 0.33 | 8 | 2 | 23 |
| CCN(CC)CCNC(=O)c1c(C)[nH]c(/C=C2\C(=O)Nc3ccc(-c4ccnn4-c4cccc(C)c4)cc32)c1C | 29 | 137 | – | – | – | – | – | – | – | – | – |
| CCN(CC)CCNC(=O)c1c(C)[nH]c(/C=C2\C(=O)Nc3ccc(-c4cnn(-c5nccs5)c4)cc32)c1C | 18 | 111 | – | – | – | – | – | – | – | – | – |
| CCN(CC)CCNC(=O)c1c(C)[nH]c(/C=C2\C(=O)Nc3ccc(-c4cnn(-c5ccccc5Cl)c4)cc32)c1C | 4 | 99 | – | – | – | – | – | – | – | – | – |
| CCN(CC)CCNC(=O)c1c(C)[nH]c(/C=C2\C(=O)Nc3c2cccc3-c2csc(-c3ccccc3)n2)c1C | – | – | 3.75 | 1.96 | 3.2 | 1.26 | 1.57 | 0.28 | 144 | 2 | 32 |
